# Assay results: patent US5420228A, “Fluorescent-labelled bleomycin analogues” (University of Pittsburgh of the Commonwealth System of …, priority 1994, dated 1995)
# “Also recorded” adds a separate entry of the source.
# Experiments:
# [1] = Fluorescent intensity and quantum yield in solution; format: physicochemical; settings: for relative fluorescent units: 1 μM solutions
# Protocol: Absorption spectra were obtained using a Perkin-Elmer (Lambda 2) UV/VIS spectrophotometer. Fluorescence spectra were obtained by using either a Perkin-Elmer 650-10S fluorescent spectrophotometer or a SPEX Fluorolog 2. Proton NMR spectra were recorded with a Bruker 300 MHz pulsed fourier transform spectrometer. The chemical shifts were determined with respect to internal standards: tetramethylsilane or 4-trimethylsilylpropanesulfonic acid.
# C-10E cells [2] = assay: MTT microculture growth inhibition assay, BLM-resistant C-10E cells; format: cell-based, human; settings: for IC50: cells exposed to drugs for 4 days, MTT, ± SEM; for resistance index C-10E: ratio of IC50 for C-10E cells compared to the IC50 for A-253 cells; for fold resistance of C-10E cells: C-10E clone relative to A-253 cells
# Protocol: (§1) A-253 human head and neck squamous carcinoma cells were obtained from the American Type Culture Collection (Rockville, Md.) and were grown in McCoy's medium supplemented with 10% fetal bovine serum (Hyclone, Logan, Utah) as previously described. See, Lazo, J. S., et al., "Characteristics of Bleomycin-resistant Phenotypes of Human Cell Sublines and Circumvention of Bleomycin Resistance by Liblomycin," Cancer Res , 49: 185-190, (1989). The BLM-resistant (C-10E) cell line was derived from A-253 cells as previously described. Id., incorporated by reference herein, and was maintained in the continuous presence of 50 nM BLM. The revertant (C-10E^R) cells were obtained by growing C-10E cells in the absence of BLM for 3 months. Cell lines were maintained at 37° C. in a humidified incubator with 95% air, 5% CO2 atmosphere.
# (§2) The effect of drugs on cellular proliferation was determined using the previously described MTT microculture assay. See, Twentyman, P. R., et al., "Study of Some Variables in a Tetrazolium Dye (MTT) Based Assay for Cell Growth and Chemosensitivity," Br. J Cancer, 56: 279-285, (1987). Exponentially growing cells were plated at a density of 2 to 4×10^3 cells per well in 100 μl volume into 96-well microtiter plates (Costar, Cambridge, Mass.). After 3 hours, various concentrations of drugs were added and the plates were incubated for 4 days at 37° C. under humidified 5% CO2 -95% air atmosphere. After 4 days, the medium was replaced with 100 μl of 1 mg/ml MTT in McCoy's medium, and cells were incubated with MTT solution in McCoy's medium for 3 hours at 37° C. Excess MTT was removed, the formazan generated was dissolved in 100 μl DMSO, and the absorbance at wavelength 540 nm was determined spectrophotometrically (Titertek Multiskan; Flow Labs, McLean, Va.). The drug concentrations required to inhibit cell growth by 50% (IC50) were then determined.
# [3] = tested on: A-253 human head and neck squamous carcinoma cells; assay: MTT microculture growth inhibition assay, A-253 cells; format: cell-based; settings: for IC50: cells exposed to drugs for 4 days, MTT, ± SEM of 16 or more determinations
# Protocol: as §1, §2
# C-10E^R cells [4] = assay: MTT microculture growth inhibition assay, revertant C-10E^R cells; format: cell-based, human; settings: for resistance index C-10E ®: ratio of IC50 for C-10E ® cells compared to the IC50 for A-253 cells; for IC50: revertant cells, exposed to drugs for 4 days, MTT, ± SEM
# Protocol: as §1, §2
# [5] = tested on: form I plasmid pGEM-3Z DNA; assay: DNA cleavage assay, agarose gel electrophoresis and densitometry; format: biochemical; settings: for form I DNA remaining after 1 minute incubation: equipotent concentrations: TLM S10b 0.05 μM, FLM 0.62 μM
# Protocol: The ability of various drugs to cause breakage of covalently closed circular DNA was determined using a slight modification of a previously described DNA cleavage assay. See, Lazo, J. S., et al, "Enhanced Bleomycin-induced DNA Damage and Cytotoxicity with Calmodulin Antagonists," Molec. Pharmacol., 27: 387-393, (1985). Metal-free FLM was first made by chelating the metal with dithizone using a previously described procedure. See, Roy, S. R., et al., "Chemical Synthesis of Radiolabeled Bleomycin A2 and its Binding to DNA," Cancer Res., 41: 4471-4477, (1981), incorporated by reference herein. […] The disappearance of form I DNA and the appearance of form II and form III DNA were assayed by gel electrophoresis with 1.2% agarose gels at room temperature for 15 h at 30 V in a buffer containing 40 mM Tris-acetate and 1 mM EDTA. The gel was then stained with 1 μg/ml ethidium bromide for 1 hour and the DNA visualized by UV irradiation. A negative film of the gel was recorded and scanned using an LKB 2400 GelScan XL densitometer. The effect of incubation time on cleavage of pGEM-3Z DNA by TLM S10b and FLM was also determined using equipotent amounts of TLM S10b and FLM (0.05 and 0.62 μM, respectively) by gel electrophoresis as described above.
# Equipotent concentrations of TLM S10b and FLM (0.05 and 0.62 μM, respectively) were incubated with form I DNA for 1, 5, 10, 20 and 30 minutes and the percent form I DNA remaining was calculated from densitometric scanning of the band corresponding to form I. Following incubation with FLM for 1 minute, only 6.5% form I DNA remained undegraded (lane 8). In contrast, 74% form I DNA remained intact following incubation with TLM S10b for 1 minute (lane 3) and 10 minutes incubation was required to cleave 95% of form I (lane 5).
# A-253 cells [6] = assay: Cell-associated drug by fluorescent spectrophotometry, A-253 cells; settings: 1 hour, 37° C.
# Protocol: (§5) Exponentially growing A-253, C-10E or C-10E^R cells were harvested and approximately 1.5×10^6 cells were incubated in 200 µl medium at 37° C. for 60 minutes in the presence or absence of 100 μM FLM. Drug incubation was terminated by washing the cells with 3×1 ml of ice-cold PBS, resuspending the cells in 1 ml of 50 mM bicarbonate buffer (pH=9.0) and lysing by sonication (4×5 sec). The cell lysate was centrifuged at 12,000 rpm (Eppendorf Microcentrifuge 5415 C) to remove cellular debris, and the supernatant was filtered through 0.2 μm SPIN-X centrifuge filter unit (Costar, Cambridge, Mass.). The cell-associated fluorescent was measured using a fluorescent spectrophotometer. Autofluorescent associated with cells in the absence of drug treatment was measured and subtracted from the fluorescent value of the drug-treated group.
# (§6) To quantify the levels of cell-associated FLM in A253, C-1OE and C-10E^R cell lines, cells were incubated with 100 μM FLM for 1 hour at 37° C. and the cellular fluorescent of the three cell lines were measured by fluorometry.
# C-10E cells [7] = assay: Flow cytometric analysis of cellular FLM content, C-10E cells; format: cell-based, human
# Protocol: (§3) For each analysis, a "control" was included in which each cell line was incubated under identical conditions in the absence of FLM. […] Cells were then suspended in 100 μl PBS, fixed with 2% paraformaldehyde in 100 μl PBS and analyzed by flow cytometry using a Becton-Dickinson FAC Star. Analysis was done using a 2 W laser tuned in at 488 nm at an output strength of 200 mW. The band pass filter range =530/30. The total number of cells analyzed was 5,000.
# (§4) The cell diameter as measured by Coulter counter was similar for all the three cell lines ([…]).
# C-10E^R cells [8] = assay: Flow cytometric analysis of cellular FLM content, C-10E^R cells; format: cell-based, human
# Protocol: as §3, §4
# A-253 cells [9] = assay: Flow cytometric analysis of cellular FLM content, A-253 cells; format: cell-based, human; settings: 100 μM FLM, 60 minutes, 37° C.
# Protocol: as §3, §4
# C-10E^R cells [10] = assay: Cell-associated drug by fluorescent spectrophotometry, C-10E^R cells; format: cell-based, human; settings: 100 μM FLM, 1 hour, 37° C., fluorometry
# Protocol: as §5, §6
# C-10E cells [11] = assay: Cell-associated drug by fluorescent spectrophotometry, C-10E cells; format: cell-based, human
# Protocol: as §5, §6
# [12] = A-253 cells, continuous exposure
molecule,measurement,setting,value
"Cc1c(N)nc([C@H](CC(N)=O)NC[C@H](N)C(N)=O)nc1C(=O)N[C@H](C(=O)N[C@H](C)[C@@H](O)[C@H](C)C(=O)N[C@H](C(=O)NCCc1nc(-c2nc(C(=O)NCCCN(C)CCCN(Cc3ccc(OCc4ccccc4)c(OCc4ccccc4)c3)Cc3ccc(OCc4ccccc4)c(OCc4ccccc4)c3)cs2)cs1)[C@@H](C)O)[C@@H](O[C@@H]1O[C@@H](CO)[C@@H](O)[C@H](O)[C@@H]1O[C@H]1O[C@H](CO)[C@@H](O)[C@H](OC(N)=O)[C@@H]1O)c1cnc[nH]1 [LBM, liblomycin, reference compound]",relative fluorescent units,[1],2.1 relative fluorescent units
same,IC50,C-10E cells [2],570 ± 20 nM
same,resistance index C-10E,C-10E cells [2],1.1
same,IC50,[3],500 ± 20 nM
"Cc1c(N)nc([C@H](CC(N)=O)NC[C@H](N)C(N)=O)nc1C(=O)N[C@H](C(=O)N[C@H](C)[C@@H](O)CC(=O)N[C@H](C(=O)NC(O[C@@H]1O[C@@H](C)[C@@H](N)[C@@H](O)[C@H]1O)C(O)c1nc(-c2nc(C(=O)NCCCCN)cs2)cs1)[C@@H](C)O)[C@@H](O[C@@H]1O[C@@H](CO)[C@@H](O)[C@H](O)[C@@H]1O[C@H]1O[C@H](CO)[C@@H](O)[C@H](OC(N)=O)[C@@H]1O)c1cnc[nH]1 (stereo partly drawn) [TLM S10b, talisomycin S10b, reference compound]",relative fluorescent units,[1],2.6 relative fluorescent units
same,fold resistance of C-10E cells,C-10E cells [2],40- to 50 fold
same,IC50,C-10E cells [2],2700 ± 23 nM
same,resistance index C-10E,C-10E cells [2],54
same,IC50,[3],50 ± 2.3 nM
same,resistance index C-10E ®,C-10E^R cells [4],8
same,IC50,C-10E^R cells [4],410 ± 9 nM
same,form I DNA remaining undegraded,"[5]; 0.05 μM drug, 20 minutes, stoichiometric Fe(II)",21.1%
same,incubation required to cleave 95% of form I DNA,[5]; TLM S10b 0.05 μM,10 min
same,form I DNA remaining after 1 minute incubation,[5],74%
fluoromycin [FLM],"fold difference in drug accumulation, FLM vs BLM A2",A-253 cells [6]; 50 μM,~2 fold
same,cell-associated FLM,"A-253 cells [6]; 100 μM FLM, fluorometry",246 pmol/106 cells
same,"cell-associated drug, comparison of BLM A2 and FLM",A-253 cells [6]; 100 μM drug,255 pmol/10^6 cells
same,cell-associated FLM fold higher than for BLM A2,A-253 cells [6]; 100 μM,approximately 2.5 fold
same,mean fluorescent channel number (mean FL1),"C-10E cells [7]; C-10E cells, 100 μM FLM, 60 minutes, 37° C.",61
same,"fold difference in fluorescent intensity, C-10E lower than A-253 cells",C-10E cells [7]; flow cytometry of FLM content,4 fold
same,mean fluorescent channel number (mean FL1),"C-10E^R cells [8]; C-10E^R cells, 100 μM FLM, 60 minutes, 37° C.",122
same,"fold lower fluorescent intensity, C-10E^R compared to A-253 cells",C-10E^R cells [8]; flow cytometry of FLM content,2 fold
same,mean fluorescent channel number (mean FL1),A-253 cells [9],250
same,relative fluorescent units,[1],836 relative fluorescent units
same,fluorescent quantum yield,"[1]; 50 mM bicarbonate buffer (pH=9.0), excited at 497 nm, emission maximum 523 nm",0.71
same,"fluorescent intensity times greater than that of BLM A2, TLM S10b and LBM",[1]; equimolar solutions,300 to 400 times
same,cell-associated FLM,C-10E^R cells [10],167 pmol/10^6 cells
same,fold resistance of C-10E cells,C-10E cells [2],50 fold
same,IC50,C-10E cells [2],66000 ± 1700 nM
same,resistance index C-10E,C-10E cells [2],53
same,times less potent than BLM A2 (antiproliferative potency),[3]; [12],33 times
same,times less potent than TLM S10b (antiproliferative potency),[3]; [12],25 times
same,IC50,[3],1250 ± 80 nM
same,IC50 value times higher than TLM S10b or BLM A2,[3]; growth inhibition assay,25-30 times
same,resistance index C-10E ®,C-10E^R cells [4],18
same,IC50,C-10E^R cells [4],22000 ± 1100 nM
same,cell-associated FLM,"C-10E cells [11]; C-10E cells, 100 μM FLM, 1 hour, 37° C., fluorometry",123 pmol/10^6 cells
same,"fold difference in cell-associated FLM, C-10E lower than A-253 cells",C-10E cells [11]; fluorescent spectrophotometry,2 fold
same,form I DNA remaining after 1 minute incubation,[5],6.5%
same,rate of DNA cleavage relative to TLM S10b,[5]; equipotent doses compared directly,approximately 10 times
same,times less potent than TLM S10b in DNA cleavage,"[5]; metal-free FLM, stoichiometric Fe(II), 20 minutes",12 times
same,cleavage of plasmid DNA in vitro,[5]; result in words,able to cleave form I DNA; also recorded: cleaves pGEM-3Z plasmid DNA in vitro in a concentration-dependent manner
